Measurements as given in patent US11560582B2, “Fusion moieties and microbial hosts for protein production” (priority 2018, dated 2023).

Assays:
[1] = tested on: A. wodanis strain 03/09/160 (37); assay: Antibiotic susceptibility testing on LB plates; assay type: cell-based, Aliivibrio wodanis; settings: 12° C. for 2 days
Procedure: (§1) Antibiotic susceptibility testing was done by streaking A. wodanis cells onto LB plates supplemented with 2.5% NaCl and one of the following antibiotics: Chloramphenicol (2 μg/mL, Tetracycline (10 μg/mL), Carbenicillin (100 or 200 μg/mL) or Kanamycin (50 or 100 μg/mL). A. wodanis was regarded as susceptible (score=0) if no growth was detected, as intermediate susceptible (score=0.5) if poor growth was detected, or as resistant (score=1) if good growth was detected. The tested concentrations of antibiotics were similar to the recommended working concentrations for E. coli, except Chloramphenicol that was tested at 2 μg/mL (instead of 25 μg/mL). If the test scored as “resistant”, then the test was redone using 2× of the recommended concentration. All A. wodanis strains were streaked onto same agar plate and grown at 12° C. for 2 days.

[2] = tested on: A. wodanis strain 01/09/401 (11); assay: Antibiotic susceptibility testing on LB plates; assay type: cell-based, Aliivibrio wodanis; settings: 12° C. for 2 days
Procedure: as §1

[3] = tested on: A. wodanis strain 04/60/17347 (35); assay: Antibiotic susceptibility testing on LB plates; assay type: cell-based, Aliivibrio wodanis; settings: 12° C. for 2 days
Procedure: as §1

[4] = tested on: A. wodanis strain 06/09/178 (29); assay: Antibiotic susceptibility testing on LB plates; assay type: cell-based, Aliivibrio wodanis; settings: 12° C. for 2 days
Procedure: as §1

[5] = tested on: A. wodanis strain 02/09/569 (7); assay: Antibiotic susceptibility testing on LB plates; assay type: cell-based, Aliivibrio wodanis; settings: 12° C. for 2 days
Procedure: as §1

[6] = tested on: A. wodanis strain 06/09/170 (27); assay: Antibiotic susceptibility testing on LB plates; assay type: cell-based, Aliivibrio wodanis; settings: 12° C. for 2 days
Procedure: as §1

[7] = tested on: A. wodanis strain 90/09/325 (5); assay: Antibiotic susceptibility testing on LB plates; assay type: cell-based, Aliivibrio wodanis; settings: 12° C. for 2 days
Procedure: as §1

[8] = tested on: A. wodanis strain 88/09/441 (12) (T); assay: Antibiotic susceptibility testing on LB plates; assay type: cell-based, Aliivibrio wodanis; settings: 12° C. for 2 days
Procedure: as §1

[9] = tested on: A. wodanis strain 02/09/382 (8); assay: Antibiotic susceptibility testing on LB plates; assay type: cell-based, Aliivibrio wodanis; settings: 12° C. for 2 days
Procedure: as §1

[10] = tested on: A. wodanis strain 89/09/5532 (1); assay: Antibiotic susceptibility testing on LB plates; assay type: cell-based, Aliivibrio wodanis; settings: 12° C. for 2 days
Procedure: as §1

[11] = tested on: A. wodanis strain K7F1 150913; assay type: cell-based, Aliivibrio wodanis; settings: 12° C. for 2 days
Procedure: as §1

A. wodanis strains [12] = assay: Antibiotic resistance test, summary for all strains; assay type: cell-based, Aliivibrio wodanis; settings: the twelve strains used in this study
Procedure: Next, we tested for resistance to antibiotics, four of which are commonly used in biotechnological applications, namely carbenicillin, kanamycin, tetracycline and chloramphenicol.
as §1

A. wodanis strains [13] = settings: have been reported; cited from earlier work

O=C(N[C@H](CO)[C@H](O)c1ccc([N+](=O)[O-])cc1)C(Cl)Cl [CHL, chloramphenicol]
sensitive: sensitivity / resistance to antibiotics (A. wodanis strains [12])
0: Antibiotics resistance CHL 2 μg/mL ([1]; 2 μg/mL) | Antibiotics resistance CHL 2 μg/mL ([2]; 2 μg/mL) | Antibiotics resistance CHL 2 μg/mL ([3]; 2 μg/mL) | Antibiotics resistance CHL 2 μg/mL ([4]; 2 μg/mL) | Antibiotics resistance CHL 2 μg/mL ([5]; 2 μg/mL) | Antibiotics resistance CHL 2 μg/mL ([6]; 2 μg/mL) | Antibiotics resistance CHL 2 μg/mL ([7]; 2 μg/mL) | Antibiotics resistance CHL 2 μg/mL ([8]; 2 μg/mL) | Antibiotics resistance CHL 2 μg/mL ([9]; 2 μg/mL) | Antibiotics resistance CHL 2 μg/mL ([10]; 2 μg/mL) | Antibiotics resistance CHL 2 μg/mL ([11]; 2 μg/mL)

Cc1cc(NS(=O)(=O)c2ccc(N)cc2)no1 [sulfamethoxazole]
Resistance: Resistance of A. wodanis strains (reported) (A. wodanis strains [13])

CC1(C)S[C@@H]2[C@H](NC(=O)C(C(=O)O)c3ccccc3)C(=O)N2[C@H]1C(=O)O (stereo partly shown) [CAR, Carbenicillin]
resistance: sensitivity / resistance to antibiotics (A. wodanis strains [12])
0.5: Antibiotics resistance CAR 100 μg/mL ([8]; 100 μg/mL) | Antibiotics resistance CAR 200 μg/mL ([8]; 200 μg/mL)
1: Antibiotics resistance CAR 100 μg/mL ([1]; 100 μg/mL) | Antibiotics resistance CAR 200 μg/mL ([1]; 200 μg/mL) | Antibiotics resistance CAR 100 μg/mL ([2]; 100 μg/mL) | Antibiotics resistance CAR 200 μg/mL ([2]; 200 μg/mL) | Antibiotics resistance CAR 100 μg/mL ([3]; 100 μg/mL) | Antibiotics resistance CAR 200 μg/mL ([3]; 200 μg/mL) | Antibiotics resistance CAR 100 μg/mL ([4]; 100 μg/mL) | Antibiotics resistance CAR 200 μg/mL ([4]; 200 μg/mL) | Antibiotics resistance CAR 100 μg/mL ([5]; 100 μg/mL) | Antibiotics resistance CAR 200 μg/mL ([5]; 200 μg/mL) | Antibiotics resistance CAR 100 μg/mL ([6]; 100 μg/mL) | Antibiotics resistance CAR 200 μg/mL ([6]; 200 μg/mL) | Antibiotics resistance CAR 100 μg/mL ([7]; 100 μg/mL) | Antibiotics resistance CAR 200 μg/mL ([7]; 200 μg/mL) | Antibiotics resistance CAR 100 μg/mL ([9]; 100 μg/mL) | Antibiotics resistance CAR 200 μg/mL ([9]; 200 μg/mL) | Antibiotics resistance CAR 100 μg/mL ([10]; 100 μg/mL) | Antibiotics resistance CAR 200 μg/mL ([10]; 200 μg/mL) | Antibiotics resistance CAR 100 μg/mL ([11]; 100 μg/mL) | Antibiotics resistance CAR 200 μg/mL ([11]; 200 μg/mL)

CO[C@@]1(NC(=O)Cc2cccs2)C(=O)N2C(C(=O)O)=C(COC(N)=O)CS[C@@H]21 [cefoxitin]
Resistance: Resistance of A. wodanis strains (reported) (A. wodanis strains [13])
